In brackets after ≈: the same amount, converted by molar mass. Activity calls are given as the source filed them. The rule behind the calls is not given here.
Experiments:
Pseudomonas aeruginosa [1] = assay: Antimicrobial activity against Pseudomonas aeruginosa MTCC 4673 at 50 ug/mL after 12 hrs by well diffusion method; format: functional
Pseudomonas aeruginosa [2] = assay: Antimicrobial activity against Pseudomonas aeruginosa MTCC 4673 at 100 ug/mL after 12 hrs by well diffusion method; format: functional
Candida albicans [3] = assay: Antimicrobial activity against Candida albicans MTCC 183 at 50 ug/mL after 12 hrs by well diffusion method; format: functional; settings: for zone of inhibition at 50 µg/mL: MTCC 183, 12 h, read-out: DIZ
Staphylococcus aureus [4] = assay: Antimicrobial activity against Staphylococcus aureus MTCC 3160 after 12 hrs by well diffusion method; format: functional; settings: MTCC 3160, 12 h
[5] = test system: Mycolicibacterium smegmatis; assay: Antimicrobial activity against Mycobacterium smegmatis MTCC 943 after 12 hrs by well diffusion method; format: functional; settings: MTCC 943, 12 h
[6] = test system: Mycolicibacterium smegmatis; assay: Antimicrobial activity against Mycobacterium smegmatis MTCC 943 at 50 ug/mL after 12 hrs by well diffusion method; format: functional
Pseudomonas aeruginosa [7] = assay: Antimicrobial activity against Pseudomonas aeruginosa MTCC 4673 after 12 hrs by well diffusion method; format: functional; settings: MTCC 4673, 12 h
Salmonella typhimurium [8] = assay: Antimicrobial activity against Salmonella typhimurium MTCC 3732 after 12 hrs by well diffusion method; format: functional, Salmonella enterica subsp. enterica serovar Typhimurium; settings: Salmonella enterica, MTCC 3732, 12 h
Staphylococcus aureus [9] = settings: MTCC 3160, 50 ug/mL
Description: Antimicrobial activity against Staphylococcus aureus MTCC 3160 at 50 ug/mL after 12 hrs by well diffusion method

[10] = test system: Mycolicibacterium smegmatis; assay: Antimicrobial activity against Mycobacterium smegmatis MTCC 943 at 100 ug/mL after 12 hrs by well diffusion method; format: functional
Salmonella typhimurium [11] = assay: Antimicrobial activity against Salmonella typhimurium MTCC 3732 at 50 ug/mL after 12 hrs by well diffusion method; format: functional, Salmonella enterica subsp. enterica serovar Typhimurium; settings: for diameter of the inhibition zone (DIZ): Salmonella enterica subsp. enterica serovar Typhimurium
Staphylococcus aureus [12] = assay: Antimicrobial activity against Staphylococcus aureus MTCC 3160 at 100 ug/mL after 12 hrs by well diffusion method; format: functional
Salmonella typhimurium [13] = assay: Antimicrobial activity against Salmonella typhimurium MTCC 3732 at 100 ug/mL after 12 hrs by well diffusion method; format: functional, Salmonella enterica subsp. enterica serovar Typhimurium; settings: for diameter of the inhibition zone (DIZ): Salmonella enterica subsp. enterica serovar Typhimurium
Candida albicans [14] = assay: Antimicrobial activity against Candida albicans MTCC 183 after 12 hrs by well diffusion method; format: functional; settings: MTCC 183, 12 h
Candida albicans [15] = assay: Antimicrobial activity against Candida albicans MTCC 183 at 100 ug/mL after 12 hrs by well diffusion method; format: functional; settings: for zone of inhibition at 100 µg/mL: MTCC 183, 12 h, read-out: DIZ
[16] = Salmonella enterica, MTCC 3732, 12 h, read-out: DIZ

| Structure (SMILES) | diameter of the inhibition zone (DIZ) (Pseudomonas aeruginosa [1]) | diameter of the inhibition zone (DIZ) (Pseudomonas aeruginosa [2]) | zone of inhibition at 50 µg/mL (Candida albicans [3]) | MIC (Staphylococcus aureus [4]) | MIC [5] | diameter of the inhibition zone (DIZ) [6] | MIC (Pseudomonas aeruginosa [7]) | MIC (Salmonella typhimurium [8]) | DIZ (Staphylococcus aureus [9]) | MIC (Candida albicans [14]) | zone of inhibition at 100 µg/mL (Candida albicans [15]) | diameter of the inhibition zone (DIZ) [10] | diameter of the inhibition zone (DIZ) (Salmonella typhimurium [11]) | diameter of the inhibition zone (DIZ) (Staphylococcus aureus [12]) | diameter of the inhibition zone (DIZ) (Salmonella typhimurium [13]) | diameter of the inhibition zone (DIZ) (Candida albicans [3]) | diameter of the inhibition zone (DIZ) (Candida albicans [15]) | other results |
| --- | --- | --- | --- | --- | --- | --- | --- | --- | --- | --- | --- | --- | --- | --- | --- | --- | --- | --- |
| C#CCn1cc(C(=O)O)c(=O)c2ccc(C(F)(F)F)cc21 | inactive | inactive | 12 mm | 100 µg/mL (≈ 339 µM) | 100 µg/mL (≈ 339 µM) | inactive | > 100 µg/mL | 25 µg/mL (≈ 84.7 µM) | inactive | 25 µg/mL (≈ 84.7 µM) | 12 mm | – | – | – | – | – | – | zone of inhibition at 100 µg/mL ([10]; MTCC 943, 12 h, read-out: DIZ): 7 mm; zone of inhibition at 50 µg/mL (Salmonella typhimurium [11]; [16]): 8 mm; zone of inhibition at 100 µg/mL (Staphylococcus aureus [12]; MTCC 3160, 12 h, read-out: DIZ): 10 mm; zone of inhibition at 100 µg/mL (Salmonella typhimurium [13]; [16]): 8 mm |
| N#Cc1ccc(Cn2cc(C(=O)O)c(=O)c3ccc(C(F)(F)F)cc32)cc1 | – | – | 7.6 mm | > 100 µg/mL | > 100 µg/mL | inactive | 25 µg/mL (≈ 67.1 µM) | > 100 µg/mL | inactive | 50 µg/mL (≈ 134 µM) | 8.33 mm | inactive | inactive | inactive | inactive | – | – | zone of inhibition at 50 µg/mL (Pseudomonas aeruginosa [1]; MTCC 4673, 12 h, read-out: DIZ): 8 mm; zone of inhibition at 100 µg/mL (Pseudomonas aeruginosa [2]; MTCC 4673, 12 h, read-out: DIZ): 8 mm |
| CCOC(=O)c1cn(Cc2ccc(Cl)cc2Cl)c2cc(C(F)(F)F)ccc2c1=O | inactive | inactive | – | – | – | inactive | – | – | inactive | – | – | inactive | inactive | inactive | inactive | inactive | inactive | – |
| C#CCn1cc(C(=O)O)c(=O)c2cccc(C(F)(F)F)c21 | inactive | inactive | – | – | – | inactive | – | – | inactive | – | – | inactive | inactive | inactive | inactive | inactive | inactive | – |
| C#CCn1cc(C(=O)OCC)c(=O)c2cccc(C(F)(F)F)c21 | inactive | inactive | – | – | – | inactive | – | – | inactive | – | – | inactive | inactive | inactive | inactive | inactive | inactive | – |
| OC(Cn1cncn1)(Cn1cncn1)c1ccc(F)cc1F [FLUCONAZOLE] | – | – | 26.3 mm | – | – | – | – | – | – | < 10 µg/mL | 29 mm | – | – | – | – | – | – | – |

— ChEMBL document CHEMBL2424533, “Design and regioselective synthesis of trifluoromethylquinolone derivatives as potent antimicrobial agents” (2013)
